assay: physchem

Structure (SMILES) | pKa
CCO[C@@H]([C@H]1C[C@@H](C)[C@H]2[C@H](O1)[C@H](O)[C@@]1(C)[C@@H]3CC[C@H]4C(C)(C)[C@@H](O[C@H]5CN(CC)CCO5)CC[C@@]45C[C@@]35CC[C@]21C)C(C)(C)O | 7.3
CCO[C@@H]([C@H]1C[C@@H](C)[C@H]2[C@H](O1)[C@H](O)[C@@]1(C)[C@@H]3CC[C@H]4C(C)(C)[C@@H](O[C@H]5CN(C6(C)COC6)CCO5)CC[C@@]45C[C@@]35CC[C@]21C)C(C)(C)O | 5.2
CCO[C@@H]([C@H]1C[C@@H](C)[C@H]2[C@H](O1)[C@H](O)[C@@]1(C)[C@@H]3CC[C@H]4C(C)(C)[C@@H](O[C@H]5CN(C6COC6)CCO5)CC[C@@]45C[C@@]35CC[C@]21C)C(C)(C)O | 5.1
CCO[C@@H]([C@H]1C[C@@H](C)[C@H]2[C@H](O1)[C@H](O)[C@@]1(C)[C@@H]3CC[C@H]4C(C)(C)[C@@H](O[C@H]5CN(C6CNC6)CCO5)CC[C@@]45C[C@@]35CC[C@]21C)C(C)(C)O | 10.7
CCO[C@@H]([C@H]1C[C@@H](C)[C@H]2[C@H](O1)[C@H](O)[C@@]1(C)[C@@H]3CC[C@H]4C(C)(C)[C@@H](O[C@H]5CNCCO5)CC[C@@]45C[C@@]35CC[C@]21C)C(C)(C)O | 7.8
CCO[C@@H]([C@H]1C[C@@H](C)[C@H]2[C@H](O1)[C@H](O)[C@@]1(C)[C@@H]3CC[C@H]4C(C)(C)[C@@H](O[C@H]5CN(C)CCO5)CC[C@@]45C[C@@]35CC[C@]21C)C(C)(C)O | 7.2
CCO[C@@H]([C@H]1C[C@@H](C)[C@H]2[C@H](O1)[C@H](O)[C@@]1(C)[C@@H]3CC[C@H]4C(C)(C)[C@@H](O[C@H]5CN(CCN6CCC6)CCO5)CC[C@@]45C[C@@]35CC[C@]21C)C(C)(C)O | 9.4
CCO[C@@H]([C@H]1C[C@@H](C)[C@H]2[C@H](O1)[C@H](O)[C@@]1(C)[C@@H]3CC[C@H]4C(C)(C)[C@@H](O[C@H]5CN(CC(=O)N6CCC6)CCO5)CC[C@@]45C[C@@]35CC[C@]21C)C(C)(C)O | 5.2

From ChEMBL document CHEMBL3400044, “Minimization of drug-drug interaction risk and candidate selection in a natural product-based class of gamma-secretase modulators” (Bioorg Med Chem Lett, 2015)
